This test concerns the target T1, human GnRH receptor (Homo sapiens, UniProt P30968).
T1 construct: expressed in transfected cells; host or cells: RBL cells, stably transfected (in general)
T1 sequence (P30968 1-328): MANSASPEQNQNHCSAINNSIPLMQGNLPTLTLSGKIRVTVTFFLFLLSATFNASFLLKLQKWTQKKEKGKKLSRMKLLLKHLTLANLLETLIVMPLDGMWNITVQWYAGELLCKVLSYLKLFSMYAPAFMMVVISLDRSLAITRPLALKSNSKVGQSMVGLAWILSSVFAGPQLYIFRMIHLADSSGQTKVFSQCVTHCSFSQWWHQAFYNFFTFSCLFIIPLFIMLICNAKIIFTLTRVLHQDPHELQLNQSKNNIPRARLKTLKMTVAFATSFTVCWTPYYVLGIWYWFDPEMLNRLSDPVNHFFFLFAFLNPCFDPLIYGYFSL
Description: Peptide competition radioligand binding displacement assay, human GnRH receptor membranes. To be noted: one or more of the peptide competition human receptor binding assays. How it is done: cDNA's of human, rhesus macaque, rabbit, dog and rat GnRH receptors are cloned into pcDNA3.1 (+) (Invitrogen). Full length sequences of all receptors are confirmed by DNA sequencing. HEK 293, CHO, COS-7, or rat basophilic leukemia (RBL) cells are stably transfected with human, rat, or macaque GnRH receptors and high expressing single cell clones (Bmax≧0.4 pMol/mg membrane protein) are isolated and maintained in Dulbecco's Modified Eagles Medium (DMEM) with following supplements: 10 mM HEPES; 2 mM L-glutamine; 1 mM Sodium Pyruvate; 50 U/mL penicillin, 50 μg/mL streptomycin; 10% Heat-inactivated Fetal Bovine Serum and 200 μg/mL Geneticin (G-418-Sulfate). Non-essential amino acids (0.1 mM) (Irvine Scientific; Santa Ana, Calif.) are included in the RBL cell media.
In general, initial peptide radioligand binding assays are carried out using membranes from stably transfected RBL cells. RBL stable clones are found to more consistently express high levels of GnRH receptor and are therefore used for subsequent binding studies as well as Ca^++ flux and inositol phosphate accumulation assays. Transiently transfected COS-7 cells are used for preparation of membranes containing GnRH receptors from multiple species (as well as those of mutant receptors for other studies) because of the convenience for rapidly analyzing multiple receptors.
HEK293 cells stably transfected with the human GnRH receptor are grown for two days after achieving confluence then are harvested by striking tissue culture flasks against a firm surface. Cells are collected by centrifugation at 1000 g for 5 minutes. Cell pellets are resuspended in 5% sucrose and homogenized using a polytron homogenizer for two 15 second homogenization steps. Cell homogenates are then centrifuged for 5 minutes at 3000 g to remove nuclei and the supernatant subsequently centrifuged for 30 minutes at 44,000 g to collect the membrane fraction. The membrane pellet is resuspended in GnRH binding buffer (10 mM HEPES, pH 7.5, 150 mM NaCl and 0.1% BSA) and aliquots immediately snap-frozen in liquid nitrogen and stored at −80° C. Protein content of the membrane suspension is determined using the Bio-Rad protein assay kit (Bio-Rad).
RBL cells stably transfected with the human GnRH receptor are grown to 80% confluency prior to harvesting. The cells are incubated at 37° C. for 10 min in 0.5 mM EDTA/PBS (Ca^++, Mg^++ free), and are dislodged from the plate by gentle rapping of the flasks. Cells are collected and pelleted by centrifugation at 1000 g for 5 minutes. Cell pellets are resuspended in buffer (DPBS supplemented with 10 mM MgCl2, 2 mM EGTA, pH=7.4), and cell lysis is performed using a pressure cell and applying N2 at a pressure of 900 psi for 30 min at 4° C. Unbroken cells and larger debris were removed by centrifugation at 1200 g for 10 min at 4° C. The cell membrane supernatant is then centrifuged at 45,000 g and the resulting membrane pellet is resuspended in assay buffer and homogenized on ice using a tissue homogenizer. Protein concentrations are determined using the Coomassie Plus Protein Reagent kit. Membranes are aliquoted and stored at −80° C. until ready for use.
COS-7 cells transiently transfected with GnRH receptors from different species (human, macaque, dog, rabbit, rat) or mutant GnRH receptors are prepared by bulk electroporation. COS-7 cells are obtained from American Type Cell Culture (Manassas, Va.) and are maintained in Dulbeccos's modified Eagle's medium (DMEM) (MediaTech Inc., Herndon, Va.) containing 10% fetal bovine serum, 10 mM HEPES, 2 mM L-glutamine, 1 mM sodium pyruvate, 50 U/mL penicillin, 50 μg/mL streptomycin. COS-7 cells are seeded in 500 cm^2 tissue culture plates and grown to confluency prior to cell transfection. […]
By Ki is commonly meant the dissociation constant of the complex between target and ligand, obtained from inhibition or displacement. For `COc1cccc(C)c1N(C)C(=O)c1cc(-c2nc3ccccc3cc2C#N)c(Cl)cc1OCCCC(=O)O` [22-3], the Ki is at most 100 nM.
The result for `CN(C(=O)c1ccc(Cl)c(-c2cnc(C(F)(F)F)cc2C#N)c1)c1ccccc1OCCCc1nnn[nH]1` [28-1, 4-Chloro-3-(4-cyano-6-trifluoromethyl-pyridin-3-yl)-N-methyl-N-{2-[3-(1H-tetrazol-5-yl)-propoxy]-phenyl}-benzamide] reads at most 100 nM; that for `Cc1cccc(N(C)C(=O)c2ccc(Cl)c(-c3ncc(Cl)cc3Cl)c2)c1C` [19-10], at most 100 nM.
In turn, `COc1ccccc1N(C)C(=O)c1cc(-c2cnc(C(F)(F)F)cc2C#N)c(Cl)cc1OCCCN1C(=O)c2ccccc2C1=O` [46-4] yielded a Ki of at most 100 nM.
In turn, `CN(C(=O)c1ccc(Cl)c(-c2ncc(Cl)cc2Cl)c1)c1ccccc1O` [19-1, 4-Chloro-3-(3,5-dichloro-pyridin-2-yl)-N-(2-hydroxy-phenyl)-N-methyl-benzamide] returned an inhibition constant (Ki) of at most 100 nM.
In turn, `Cc1c(Cl)cccc1N(C)C(=O)c1ccc(Cl)c(-n2c(C)cc(C(F)(F)F)nc2=O)c1` [30-12] displayed a Ki of at most 100 nM.
Compound `COC(=O)c1ccc(Cl)cc1N(C)C(=O)c1cc(-c2cnc(C(F)(F)F)cc2C#N)c(Cl)cc1OC` [39-8] registered a Ki of at most 100 nM.
The same measure for `COc1ccccc1N(C)C(=O)c1cc(-c2cnc(C(F)(F)F)cc2C#N)c(Cl)cc1OCCn1ccnc1` [42-3]: at most 100 nM; for `Cc1cc(Cl)ncc1-c1cc(C(=O)N(C)c2ccccc2OCC(N)=O)ccc1Cl` [6-1, N-(2-Carbamoylmethoxy-phenyl)-4-chloro-3-(6-chloro-4-methyl-pyridin-3-yl)-N-methyl-benzamide]: at most 100 nM.
Compound `COc1ccccc1N(C)C(=O)c1cc(-c2cnc(C(F)(F)F)cc2C#N)c(Cl)cc1OCCCC(=O)OCOC(=O)C(C)(C)C` [36-2, 4-{5-chloro-4-(4-cyano-6-trifluoromethyl-pyridin-3-yl)-2-[(2-methoxy-phenyl)-methyl-carbamoyl]-phenoxy}-butyric acid 2,2-dimethyl-propionyloxymethyl ester] showed a Ki of at most 100 nM.
Compound `COc1ccccc1N(C)C(=O)c1ccc(Cl)c(-c2ccc(Cl)nc2Cl)c1` [2-6] gave a Ki of at most 100 nM.
The compound `Cc1cccnc1N(C)C(=O)c1cc(-c2cnc(C(F)(F)F)cc2C#N)c(Cl)cc1OCCCC(=O)O` [34-20] yielded a Ki of at most 100 nM.
As to `Cc1cccc(N(C)C(=O)c2ccc(Cl)c(-n3c(C)cc(C(F)(F)F)nc3=O)c2)c1C` [30-14], the Ki was at most 100 nM.
The compound `COc1ccccc1N(C)C(=O)c1cc(-c2cnc(C(F)(F)F)cc2C#N)c(Cl)cc1OCCOc1ccccn1` [42-8] gave a Ki of at most 100 nM.
`Cc1cnc(-c2cc(C(=O)N(C)c3c(C)cccc3C)ccc2Cl)c(Cl)c1` [2-64]: the Ki was at most 100 nM.
The same measure for `Cc1cc(Cl)c(-c2cc(C(=O)N(C)c3cccc(C(F)(F)F)c3C)ccc2Cl)c(C)n1` [2-25]: at most 100 nM; for `Cc1ccccc1N(C)C(=O)c1cc(-c2cnc(Cl)cc2Cl)c(Cl)cc1OCCCC(=O)O` [20-2]: at most 100 nM.
For the compound `Cc1cc(C#N)ncc1-c1cc(C(=O)N(C)c2c(C)cccc2OCCC(=O)O)ccc1Cl` [11-6], the Ki is at most 100 nM.
The compound `COc1cccc(C)c1N(C)C(=O)c1cc(-c2cnc(C#N)cc2C)c(Cl)cc1OCCCCO` [21-2] displayed a Ki of at most 100 nM.
With `COc1cccc(C)c1N(C)C(=O)c1ccc(Cl)c(-c2cnc(Cl)cc2C)c1` [2-31, 4-chloro-3-(6-chloro-4-methyl-pyridin-3-yl)-N-(2-methoxy-6-methyl-phenyl)-N-methyl-benzamide], the Ki is at most 100 nM.
Consider `COc1cccc(C)c1N(C)C(=O)c1cc(-c2nc3ccccc3cc2C#N)c(Cl)cc1OCCCCO` [21-3], for which the Ki is at most 100 nM.
Take `COc1cccc(C)c1N(C)C(=O)c1ccc(Cl)c(-c2ncc(Cl)cc2Cl)c1` [2-69]: the inhibition constant Ki was at most 100 nM.
Compound `COc1cc(Cl)c(-c2cnc(C(F)(F)F)cc2C#N)cc1C(=O)N(C)Cc1ccccc1F` [39-16] came in with a Ki of at most 100 nM.
`Cc1cc(Cl)c(-c2cc(C(=O)N(C)c3ccccc3F)ccc2Cl)cn1` [2-37] registered a Ki of at most 100 nM.
The result for `CCOC(=O)CCOc1ccccc1N(C)C(=O)c1ccc(Cl)c(-c2cnc(C(F)(F)F)cc2C#N)c1` [16-2, 3-(2-{[4-chloro-3-(4-cyano-6-trifluoromethyl-pyridin-3-yl)-benzoyl]-methyl-amino}-phenoxy)-propionic acid ethyl ester] reads at most 100 nM; that for `COc1cc(Cl)c(-c2cnc(C(F)(F)F)cc2C#N)cc1C(=O)N(C)c1ccccn1` [39-14], at most 100 nM; that for `COC(=O)c1ccccc1N(C)C(=O)c1ccc(Cl)c(-c2ncc(Cl)cc2C)c1` [2-72], at most 100 nM.
As for `Cc1cccc(C)c1N(C)C(=O)c1ccc(Cl)c(-n2c(C)cc(C(F)(F)F)nc2=O)c1` [30-11], the Ki was at most 100 nM.
Regarding `COc1ccccc1N(C)C(=O)c1cc(-c2cnc(C(F)(F)F)cc2C#N)c(Cl)cc1OCCN1CCOCC1` [42-2], the Ki was at most 100 nM.
The compound `CN(C(=O)c1ccc(Cl)c(-c2cnc(C(F)(F)F)cc2C#N)c1)c1ccccc1OCCCN1CCC[C@H]1C(=O)O` [50-1, (S)-1-[3-(2-{[4-Chloro-3-(4-cyano-6-trifluoromethyl-pyridin-3-yl)-benzoyl]-methyl-amino}-phenoxy)-propyl]-pyrrolidine-2-carboxylic acid] had a Ki of at most 100 nM.
The result for `Cc1cc(Cl)c(-c2cc(C(=O)N(C)c3ccccc3C)ccc2Cl)cn1` [2-16] reads at most 100 nM.
The compound `COc1ccccc1N(C)C(=O)c1ccc(Cl)c(-c2ncc(C)cc2Cl)c1` [2-58] showed a Ki of at most 100 nM.
The same measure for `COc1ccccc1N(C)C(=O)c1cc(-c2cnc(C(F)(F)F)cc2C#N)c(Cl)cc1OCC(N)CO` (centres unmarked) [42-18]: at most 100 nM; for `COc1ccccc1N(C)C(=O)c1ccc(Cl)c(-n2c(C)cc(C(F)(F)F)nc2=O)c1` [30-15]: at most 100 nM.
Compound `CN(C(=O)c1ccc(Cl)c(-c2cnc(C(F)(F)F)cc2C#N)c1)c1ccccc1OCCC(=O)NCCN` [53-1, N-{2-[2-(2-Amino-ethylcarbamoyl)-ethoxy]-phenyl}-4-chloro-3-(4-cyano-6-trifluoromethyl-pyridin-3-yl)-N-methylbenzamide] gave a Ki of at most 100 nM.
With `CN(CC1CC1)C(=O)c1cc(-c2cnc(C(F)(F)F)cc2C#N)c(Cl)cc1OCCCC(=O)O` [34-25], the Ki was at most 100 nM.
Turning to `Cc1cc(Cl)cnc1-c1cc(C(=O)N(C)c2cccc(C)c2C)ccc1Cl` [2-71], the Ki was at most 100 nM.
As for `CSc1ccccc1N(C)C(=O)c1ccc(Cl)c(-c2cnc(C(F)(F)F)cc2C#N)c1` [2-81], the Ki is at most 100 nM.
Turning to `CC(OC(=O)CCOc1ccccc1N(C)C(=O)c1ccc(Cl)c(-c2cnc(C(F)(F)F)cc2C#N)c1)OC(=O)OC1CCCCC1` (centres unmarked) [37-1, 3-(2-{[4-Chloro-3-(4-cyano-6-trifluoromethyl-pyridin-3-yl)-benzoyl]-methyl-amino}-phenoxy)-propionic acid 1-cyclohexyloxycarbonyloxy-ethyl ester], the Ki is at most 100 nM.
The result for `COc1cc(Cl)c(-c2cnc(C(F)(F)F)cc2C#N)cc1C(=O)N(C)c1cc(F)ccc1C` [39-11] reads at most 100 nM; that for `COC(=O)CCCOc1cccc(C)c1N(C)C(=O)c1ccc(Cl)c(-c2cnc(C(F)(F)F)cc2C#N)c1` [3-11], at most 100 nM.

Source of the values: patent US8481738B2, “Gonadotropin-releasing hormone receptor antagonists and methods relating thereto” (Neurocrine Biosciences, Inc., priority 2007, dated 2013).
